Laboratory results from patent publication US10738028B2, “Spiro three-membered ring, spiro five-membered ring peptide deformylase inhibitor and use thereof in antibacteria and anti-tumor” (priority 2016, dated 2020).
Like-named read-outs stand apart in the source and are kept apart here.

Key:
Format in all cases: cell-based
[1] = system: HCT-116 colorectal cancer cell line; test: CCK-8 proliferation inhibition; conditions: Homo sapiens, HCT-116, 72 h, concentration of 30 μM, 72 hours, CCK-8
How it was run: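 Proliferation over 72 hours of compound treatment was measured with CCK-8 against a 1‰ DMSO control.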

[2] = system: MGC-803 gastric cancer cell line; test: CCK-8 proliferation inhibition; conditions: Homo sapiens, MGC-803, 72 h, concentration of 30 μM
Text: (§1) 2. The present invention adopts the CCK-8 method to determine the proliferation inhibition effect of the spiro three-membered ring, spiro five-membered ring peptide deformylase inhibitor as described in Examples 1-80 against colorectal cancer cells, lung cancer cells, gastric cancer cells, liver cancer cells, and the like. […] The compound having the best activity synthesized in Example 64 was further tested for its inhibitory activity against other tumor cells including T cell leukemia, acute myeloid leukemia, cervical cancer, breast cancer, prostate cancer and osteosarcoma, and the like (see Table 7).
(§2) (1) HCT-116 colorectal cancer cell line, A549 lung cancer cell line, MGC-803 gastric cancer cell line, BEL-7402 liver cancer cell line, Jurkat T cell leukemia cell line, HL60 acute myeloid leukemia cell line, Hela cervical cancer cell line, MCF-7 breast cancer cell line, PC3 prostate cancer cell line and SAOS-2 osteosarcoma cell line were made into single cell suspension, 180 μL of which was inoculated into 96-well culture plate, which was cultured overnight in CO2 incubator (37° C., 5% CO2, 95% air).
(§3) (2) Each of the spiro three-membered ring, spiro five membered ring peptide deformylase inhibitors was dissolved in DMSO, and was further formulated into drug solution with required different final concentration using corresponding cell culture medium. The drug solutions were added to the above cells respectively (20 μL/well), with the control group added with 1‰ DMSO, and cultured in a CO2 incubator for 72 hours.
(§4) (3) After incubation for 72 hours, the culture solution was decanted, and 100 μL of 1:10 diluted CCK-8 solution was added.
(§5) Wherein, in step (1), the concentration of the single cell suspension was 2000 cells/well.
(§6) Wherein, in step (2), HCT-116 cells were cultured in McCoy's 5A medium (containing 10% newborn bovine serum, 1% double antibody); A549 and PC3 cells were cultured in F12 medium (containing 10% newborn bovine serum, 1% double antibody); MGC-803, BEL-7402, SAOS-2, Jurkat and HL60 cells were cultured in 1640 medium (containing 10% newborn bovine serum, 1% double antibody); and MCF-7 and Hela cells were cultured in DMEM high glucose medium (containing 10% newborn bovine serum, 1% double antibody).

[3] = system: A549 lung cancer cell line; test: CCK-8 proliferation inhibition; conditions: Homo sapiens, A549, 72 h, concentration of 30 μM
Text: as §1, §2, §3, §4, §5, §6

[4] = system: BEL-7402 liver cancer cell line; test: CCK-8 proliferation inhibition; conditions: concentration of 30 μM
Text: as §1, §2, §3, §4, §5, §6

[5] = system: methicillin-sensitive Staphylococcus aureus (MSSA); test: MIC, two-fold agar dilution (CLSI), clinical isolates
How it was run: (§7)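 CLSI two-fold agar dilution; MIC of test samples read per tested strain.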

[6] = system: methicillin-resistant Staphylococcus epidermidis (MRSE); test: as above
How it was run: as §7

[7] = system: methicillin-resistant Staphylococcus aureus (MRSA); test: as above
How it was run: as §7

[8] = system: Moraxella catarrhalis (BCA); test: as above
How it was run: as §7

[9] = system: methicillin-sensitive Staphylococcus epidermidis (MSSE); test: as above
How it was run: as §7

[10] = system: Enterococcus faecalis (EFA); test: as above
How it was run: as §7

[11] = system: Escherichia coli (including ESBLs, non-ESBLs); test: as above
How it was run: as §7

[12] = system: Enterococcus faecium (EFM); test: as above
How it was run: as §7

CCCC[C@H](CC(=O)NO)C(=O)N1CC2(CCCC2)C[C@H]1C(=O)Nc1cnccn1 [Example 77]
> 32 µg/mL: Anti-bacterial activity (MIC), strain MSSA 15-6 ([5]; clinical isolate MSSA 15-6) | Anti-bacterial activity (MIC), strain ECO+ 15-2 ([11]; clinical isolate ECO+ 15-2) | Anti-bacterial activity (MIC), strain ECO+ 15-3 ([11]; clinical isolate ECO+ 15-3) | Anti-bacterial activity (MIC), strain ECO+ 15-4 ([11]; clinical isolate ECO+ 15-4) | Anti-bacterial activity (MIC), strain ECO− 15-1 ([11]; clinical isolate ECO− 15-1) | Anti-bacterial activity (MIC), strain ECO− 15-2 ([11]; clinical isolate ECO− 15-2) | Anti-bacterial activity (MIC), strain ECO− 15-3 ([11]; clinical isolate ECO− 15-3) | Anti-bacterial activity (MIC), strain ECO− 15-4 ([11]; clinical isolate ECO− 15-4)
0.25 µg/mL: Anti-bacterial activity (MIC), strain MRSA 15-1 ([7]; clinical isolate MRSA 15-1) | Anti-bacterial activity (MIC), strain MRSA 15-3 ([7]; clinical isolate MRSA 15-3) | Anti-bacterial activity (MIC) ([8]; strain BCA 14-10)
49%: Inhibition of proliferation, Liver cancer BEL-7402 ([4]; 72 hours, 30 µM)
32 µg/mL: Anti-bacterial activity (MIC) ([10]; strain EFA 15-1) | Anti-bacterial activity (MIC) ([10]; strain EFA 15-2) | Anti-bacterial activity (MIC) ([10]; strain EFA 15-3) | Anti-bacterial activity (MIC) ([10]; strain EFA 15-4) | Anti-bacterial activity (MIC) ([10]; strain EFA 15-5) | Anti-bacterial activity (MIC) ([10]; strain EFA 15-6) | Anti-bacterial activity (MIC) ([12]; strain EFM 15-1) | Anti-bacterial activity (MIC) ([12]; strain EFM 15-2) | Anti-bacterial activity (MIC) ([12]; strain EFM 15-3)
0.125 µg/mL: Anti-bacterial activity (MIC), strain MSSA 15-4 ([5]; clinical isolate MSSA 15-4) | Anti-bacterial activity (MIC), strain MSSA 15-5 ([5]; clinical isolate MSSA 15-5) | Anti-bacterial activity (MIC) ([8]; strain BCA 14-5) | Anti-bacterial activity (MIC), strain MSSE 15-6 ([9]; clinical isolate MSSE 15-6) | Anti-bacterial activity (MIC), strain ECO+ 15-1 ([11]; clinical isolate ECO+ 15-1)
16 µg/mL: Anti-bacterial activity (MIC) ([10]; strain EFA 15-9)
≥ 30%: inhibition at 30 µM ([1]; Table 5, read-out: Inhibition of proliferation, Colorectal cancer HCT116)
> 50%: inhibition at 30 µM ([4]; Homo sapiens, Bel-7402, 72 h)
16%: inhibition at 30 µM [3]
19%: inhibition at 30 µM [2]
1 µg/mL: Anti-bacterial activity (MIC) ([8]; strain BCA 14-1)
2 µg/mL: Anti-bacterial activity (MIC), strain MRSE 15-2 ([6]; clinical isolate MRSE 15-2) | Anti-bacterial activity (MIC), strain MRSE 15-3 ([6]; clinical isolate MRSE 15-3) | Anti-bacterial activity (MIC), strain MRSE 15-7 ([6]; clinical isolate MRSE 15-7) | Anti-bacterial activity (MIC) ([8]; strain BCA 14-4) | Anti-bacterial activity (MIC), strain MSSE 15-4 ([9]; clinical isolate MSSE 15-4) | Anti-bacterial activity (MIC), strain MSSE 15-5 ([9]; clinical isolate MSSE 15-5) | Anti-bacterial activity (MIC) ([12]; strain EFM 15-4) | Anti-bacterial activity (MIC) ([12]; strain EFM 15-5) | Anti-bacterial activity (MIC) ([12]; strain EFM 15-6)
30%: inhibition at 30 µM ([1]; read-out: HCT116 inhibition rate/%)
0.5 µg/mL: Anti-bacterial activity (MIC), strain MSSA 15-3 ([5]; clinical isolate MSSA 15-3) | Anti-bacterial activity (MIC), strain MRSE 15-1 ([6]; clinical isolate MRSE 15-1) | Anti-bacterial activity (MIC), strain MRSA 15-2 ([7]; clinical isolate MRSA 15-2) | Anti-bacterial activity (MIC), strain MRSA 15-4 ([7]; clinical isolate MRSA 15-4) | Anti-bacterial activity (MIC) ([8]; strain BCA 14-6) | Anti-bacterial activity (MIC) ([8]; strain BCA 14-7) | Anti-bacterial activity (MIC) ([8]; strain BCA 14-8) | Anti-bacterial activity (MIC), strain MSSE 15-3 ([9]; clinical isolate MSSE 15-3)
